Reference: ChEMBL document CHEMBL6071124, “The search for pyruvate kinase-R activators; from a HTS screening hit via an impurity to the discovery of a lead series” (Bioorg Med Chem Lett, 2024)
≈ marks a conversion by molar mass, not a printed value. One block for each compound: values may come before it.

Legend:
[1] = Half life in rat at 10 mg/kg, po; format: ADME, organism-based; conditions: in vivo
[2] = biological target: Voltage-gated inwardly rectifying potassium channel KCNH2 (Homo sapiens, UniProt Q12809); test: Inhibition of human ERG at >50 uM; format: toxicity
[3] = Permeability of the compound across apical to basolateral side; format: ADME; conditions: not told; read-out: permeability
[4] = Genotoxicity in Salmonella typhimurium; format: toxicity; conditions: salmonella enterica subsp. enterica serovar typhimurium
[5] = AUC in rat at 10 mg/kg, po; format: ADME, organism-based; conditions: in vivo
[6] = biological target: T1, aromatase (Homo sapiens, UniProt P11511); test: Inhibition of aromatase (unknown origin) at 10 uM relative to control
T1 sequence (P11511 whole entry): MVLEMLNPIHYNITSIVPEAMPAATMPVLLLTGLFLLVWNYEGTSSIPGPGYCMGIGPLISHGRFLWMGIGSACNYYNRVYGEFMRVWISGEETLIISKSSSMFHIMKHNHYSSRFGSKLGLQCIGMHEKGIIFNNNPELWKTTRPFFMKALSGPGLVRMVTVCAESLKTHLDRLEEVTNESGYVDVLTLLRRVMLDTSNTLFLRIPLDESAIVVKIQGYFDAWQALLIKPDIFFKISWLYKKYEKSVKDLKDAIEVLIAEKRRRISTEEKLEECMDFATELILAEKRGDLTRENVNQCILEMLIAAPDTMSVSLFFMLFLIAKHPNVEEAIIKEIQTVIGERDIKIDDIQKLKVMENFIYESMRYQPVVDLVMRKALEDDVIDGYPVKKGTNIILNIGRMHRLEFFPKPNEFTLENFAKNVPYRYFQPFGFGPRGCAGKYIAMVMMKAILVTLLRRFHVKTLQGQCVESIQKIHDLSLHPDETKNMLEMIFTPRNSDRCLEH

[7] = Solubility of the compound; format: physicochemical
[8] = biological target: T2, Pyruvate kinase PKLR (Homo sapiens, UniProt P30613); test: Activation of PKR (unknown origin)
[9] = biological target: T2, Pyruvate kinase PKLR; test: Activation of PKR (unknown origin) by differential scanning fluorimetry analysis

T2 sequence (P30613 whole entry): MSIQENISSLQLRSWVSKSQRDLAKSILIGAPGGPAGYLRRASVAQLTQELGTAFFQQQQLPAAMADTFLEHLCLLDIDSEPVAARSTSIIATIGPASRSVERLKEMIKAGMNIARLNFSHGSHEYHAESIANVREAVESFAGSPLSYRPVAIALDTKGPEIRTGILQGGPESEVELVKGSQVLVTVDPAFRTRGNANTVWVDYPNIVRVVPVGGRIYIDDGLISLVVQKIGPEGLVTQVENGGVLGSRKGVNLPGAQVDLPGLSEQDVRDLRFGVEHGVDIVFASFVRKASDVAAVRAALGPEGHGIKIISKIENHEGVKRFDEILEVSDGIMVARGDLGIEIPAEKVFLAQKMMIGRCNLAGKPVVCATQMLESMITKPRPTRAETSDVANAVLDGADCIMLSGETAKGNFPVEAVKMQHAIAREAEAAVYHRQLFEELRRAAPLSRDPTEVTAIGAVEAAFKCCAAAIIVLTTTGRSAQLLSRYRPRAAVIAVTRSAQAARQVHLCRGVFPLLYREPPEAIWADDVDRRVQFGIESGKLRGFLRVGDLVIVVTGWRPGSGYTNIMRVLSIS
Chain of Voltage-gated inwardly rectifying potassium channel KCNH2 (Q12809 whole entry): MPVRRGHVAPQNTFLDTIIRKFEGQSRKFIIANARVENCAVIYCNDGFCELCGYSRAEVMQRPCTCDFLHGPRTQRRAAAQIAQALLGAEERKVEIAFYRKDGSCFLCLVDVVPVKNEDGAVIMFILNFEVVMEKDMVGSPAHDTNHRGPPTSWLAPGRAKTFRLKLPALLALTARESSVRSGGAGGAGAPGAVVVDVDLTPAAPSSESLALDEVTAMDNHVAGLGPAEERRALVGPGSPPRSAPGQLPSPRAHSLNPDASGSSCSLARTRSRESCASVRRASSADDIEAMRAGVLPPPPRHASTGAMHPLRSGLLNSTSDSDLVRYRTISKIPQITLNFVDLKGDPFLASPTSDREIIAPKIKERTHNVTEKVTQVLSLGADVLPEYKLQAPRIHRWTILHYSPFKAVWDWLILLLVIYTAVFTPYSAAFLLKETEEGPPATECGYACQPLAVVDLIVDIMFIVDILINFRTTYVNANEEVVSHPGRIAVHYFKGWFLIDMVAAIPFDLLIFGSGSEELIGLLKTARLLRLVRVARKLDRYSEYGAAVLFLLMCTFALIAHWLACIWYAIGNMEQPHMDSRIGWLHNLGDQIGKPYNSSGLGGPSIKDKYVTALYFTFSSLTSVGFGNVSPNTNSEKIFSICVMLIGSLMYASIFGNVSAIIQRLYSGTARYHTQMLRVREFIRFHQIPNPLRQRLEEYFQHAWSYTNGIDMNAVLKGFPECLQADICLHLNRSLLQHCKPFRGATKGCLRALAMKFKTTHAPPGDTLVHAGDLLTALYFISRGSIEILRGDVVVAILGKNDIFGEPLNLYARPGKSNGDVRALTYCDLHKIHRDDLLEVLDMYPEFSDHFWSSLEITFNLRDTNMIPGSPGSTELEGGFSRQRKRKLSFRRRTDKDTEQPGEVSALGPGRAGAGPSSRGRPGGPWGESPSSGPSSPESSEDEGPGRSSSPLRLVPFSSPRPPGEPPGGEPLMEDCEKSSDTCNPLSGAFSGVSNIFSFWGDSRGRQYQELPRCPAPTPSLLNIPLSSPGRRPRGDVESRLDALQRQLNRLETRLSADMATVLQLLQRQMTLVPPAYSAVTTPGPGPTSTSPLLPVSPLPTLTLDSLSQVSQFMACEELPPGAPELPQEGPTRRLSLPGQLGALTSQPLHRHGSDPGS

EC50 [8]: 100 µM
Structure (SMILES): O=C(NCc1nnnn1-c1ccc(Cl)cc1)Nc1cccs1

EC50 [8]: 100 µM
Structure (SMILES): O=C(NCc1nnnn1-c1ccc(F)c(F)c1)Nc1cccs1

More lines, now with the values behind:

Structure (SMILES): Cc1nc(CNC(=O)NCc2ncnn2-c2ccc3cccnc3c2)n(-c2ccc(Cl)c(F)c2)n1
half-life [1]: 2.4 h
inhibition (INH) [2]: Not Active
Papp A→B [3]: 1.2 ×10⁻⁶ cm/s
Activity [4]: Non-Toxic
AUC [5]: 2.9 µM·h
inhibition at 10 µM [6]: 17%
solubility [7]: 59 µM (≈ 29 µg/mL)

Structure (SMILES): Cc1ccc(-n2nnnc2CNC(=O)Nc2ccccc2)cc1C
EC50 [8]: 100 µM

Structure (SMILES): Cc1cnccc1CNC(=O)c1cc(COc2ccc3c(c2)OCO3)[nH]n1
EC50 [9]: 58 µM

Structure (SMILES): Cc1ccc(-n2nnnc2CNC(=O)NC2CCCCC2)cc1C
EC50 [8]: 100 µM
